Source: paper PMC11396751, “Design, Synthesis, and Anticancer Activity of Novel Enmein-Type Diterpenoid Derivatives Targeting the PI3K/Akt/mTOR Signaling Pathway” (Molecules, 2024)

Columns and labels:
A549 cells [1] = test: Apoptosis morphology, AO/EB double staining; format: cell-based, human; conditions: A549, 2, 4 and 8 µM, 48 h
Description: To explore whether compound 7h could induce apoptosis in cancer cells, A549 cells were treated with different concentrations (0, 2, 4, and 8 µM) of 7h and then stained with AO/EB double staining. In the blank control group, normal cells were stained green with AO staining solution with intact nuclei.
A549 cells were inoculated into 24-well plates and attached via cell adhesion. Then, gradient concentrations (0, 2, 4, and 8 µM) of 7h were added and co-incubated for 48 h. The cells were cleaned with ice-cold PBS, stained with AO/EB, mixed, and then incubated in cells for 5 min in darkness at 25 °C. The apoptosis morphology of the cells in each group was observed and photographed using a laser confocal microscope (LSM710, Zeiss, Oberkochen, Germany).

A549 cells [2] = test: Cell cycle analysis, PI/RNase, flow cytometry; format: cell-based, human; conditions: 48 h
Description: Cell cycle regulation is an essential process in maintaining normal bodily functions and is often disturbed in cancer cells. The inducement of cell cycle arrest is considered a key avenue for targeted cancer therapy. As a novel enmein-type diterpenoid derivative with remarkable anti-proliferative effects against A549 cells, 7h may have the ability to induce cell cycle arrest. Therefore, A549 cells were treated with 7h, stained with PI/RNase solution, and analyzed for their cell cycle distribution by flow cytometry.
A549 cells were inoculated into 24-well plates and attached via cell adhesion. Then, gradient concentrations (0, 2, 4, and 8 µM) of 7h were added and the cells were co-incubated for 48 h. The cells were cleaned with ice-cold phosphate buffer solution (PBS), digested with trypsin, collected, and prepared as a cell suspension. The cell suspension was treated with PI/RNase staining solution, the data were gathered using a flow cytometer (FACS Calibur, BD, Milpitas, CA, USA), and the cell cycle distribution was analyzed using Flow Jo software. Three attempts were performed for each treatment to eliminate experimental bias.

## C=C1C(=O)C23C(=O)OC45CCC(C)(C)C6C(OC(=O)CCC(=O)N7CCC(c8noc9cc(F)ccc89)CC7)OCC64C2CCC1C3O5 (single isomer, unassigned; ent-6) [Compound 7h, ent-6β,14α-Dihydroxy-(1,7–1,14)-epoxy-7,15-dioxo-6,20-hemiketal-6,7-seco-16-kaurene-6β-yl 4-(4-(6-fluorobenzo[d]isoxazol-3-yl)piperidin-1-yl)-4-oxobutanoate]
A549 cells [1]
  apoptosis morphology (AO/EB): generated large amounts of apoptotic cells
A549 cells [2]; A549, 2 µM
  cells in G0/G1 phase: 62.99%
  cells in G2/M phase: 16.21%
  cells in S phase: 20.80%
A549 cells [2]; A549, 4 µM
  cells in G0/G1 phase: 71.04%
  cells in G2/M phase: 17.63%
  cells in S phase: 11.33%
A549 cells [2]; A549, 8 µM
  cells in G0/G1 phase: 89.87%
  cells in G2/M phase: 3.93%
  cells in S phase: 6.10%
